Data on one molecule can be found in patent EP0114563A1, “Cytostatically effective combination” (SCHERING AKTIENGESELLSCHAFT, priority 1982, dated 1984).

Like-named read-outs stand apart in the source and are kept apart here.

This test concerns human leukemic cells. The experiment in a line: Inhibition of cell proliferation (growth kinetics by cell counting) in culture. To be noted: L-Dopa 10 µg/ml, read-out: inhibition in %, based on a control free of active agent. The text has this: Every second day, the culture medium of each test batch was replaced by fresh medium and active agent.

One may read the inhibition as the share of the control response that was lost under treatment. Regarding `N[C@@H](Cc1ccc(O)c(O)c1)C(=O)O` [L-Dopa, 3-hydroxy-L-tyrosine], the inhibition at 10 µg/mL (72 Hrs.) was determined as 18% and the inhibition at 10 µg/mL (144 Hrs.) was 58%.
